Measured values as given in patent US7166569B2, “Method for the prevention of transplant rejection” (priority 1994, dated 2007).

Key:
[1] = Experiment 2: administration of HGH and DHEA, blood metabolite levels; assay type: in vivo, human
Procedure: As in the first experiment, a standard dietary regimen was followed the evening before each blood sample was collected. HGH administration was initiated one day after a baseline blood sample was drawn. HGH was injected subcutaneously at a dose of approximately 0.018 mg/kg/day, every other night, and was injected near midnight prior to blood collection the following morning. Blood was collected between 10:30 and 11:00 a.m. The second blood sample was taken on day 8, or just over 7 days after beginning HGH injections (4 injections in total to that time). After this second blood sample, a “wash out” period of two days was allowed prior to reinitiating injections according to the same schedule. On day 9, during the HGH “wash out” period, a priming dose of 200 mg of DHEA was taken in divided doses to prepare the patient for the HGH. The second round of injections was done simultaneously with the ingestion of two 100 mg capsules of DHEA, beginning on the evening of day 10. This regimen continued for a total of 4 HGH injections, culminating in the final injection on day 16 and blood sampling on day 17. Two hundred mg of DHEA were taken also on the nights between HGH injections, at the normal time. HGH injections were administered near midnight of the day stated.

[2] = Independent experiment: IGF-1 level after arginine ingestion; assay type: in vivo; conditions: two hours after arginine ingestion; basal 223 ng/ml
Text: This drop was sustained as long as arginine administration was continued. […] Others have also measured somatomedin C levels following arginine ingestion or infusion, and found them to be depressed despite good release of HGH. There is no explanation for this paradox, but it is not material to the fact that HGH is released by arginine and that released HGH does elevate insulin and that DHEA does block this insulin-elevating effect.

[3] = Experiment 1: administration of arginine (an HGH releaser) and DHEA to a human patient, fasting blood analysis; assay type: in vivo
Text: A human patient was placed on a standardized regimen of nutrient intake for two weeks to establish a baseline prior to ingesting any HGH releasing agents. The evening prior to blood analysis, the same evening meal was consumed (salmon, potato, white wine, vegetables, and Caesar salad). Upon establishing basal values for glucose, insulin, somatomedin C (a marker for growth hormone), DHEA-sulfate, serum lipids, and testosterone, a daily regimen of ingesting 15 grams of arginine just before bedtime was instituted. This regimen was maintained for one week, after which a new baseline was obtained. The evening following this new baseline measurement, DHEA was ingested at a dose of 180 mg (two 90 mg capsules taken simultaneously) at the same time as the arginine. This was continued for one week and the baseline levels of metabolites were rechecked. Finally, for the last week, the arginine dose was administered every other day or at 7.5 g/day while DHEA levels were maintained. Thus, the data points are as follows: • 1: Baseline—begin 15 gm/day administration of arginine; • 2: Day 7—begin 180 mg/day DHEA; • 3: Day 14—begin 15 gm arginine every other day or 7.5 g/day; and • 4: Day 21—end of experiment, no arginine administered the previous night.

[4] = humans, arginine ingestion or infusion; cited from earlier work
[5] = cited from earlier work

Compound: HGH: recombinant or natural human growth hormone
- insulin rise prior to DHEA ingestion ([1]; HGH approx. 0.018 mg/kg/day s.c. every other night, day 8): 57%
- DHEA-sulfate change ([1]; HGH only): unaltered
- circulating DHEA levels, depression ([1]; HGH only): a third
- Insulin level ([1]; serum, by stage of experiment, baseline 6.6): 10.4 uU/ml
- IGF-1 level ([1]; serum, by stage of experiment, baseline 27.0): 35.5 µg/dL
- DHEA-sulfate level ([1]; serum, by stage of experiment, baseline 146): 146 µg/dL
- DHEA level ([1]; serum, by stage of experiment, baseline 360): 240 ng/dL

Compound: N=C(N)NCCC[C@H](N)C(=O)O [arginine]
- IGF-1 level after arginine ingestion [2]: 166 ng/mL
- insulin determination after only 3 days of arginine ingestion ([3]; 3 days of arginine, data not shown in FIG. 1): normal insulin level
- somatomedin C (IGF-1) levels in response to oral arginine ([3]; FIG. 5, sustained as long as arginine was continued): DROP
- circulating level of DHEA-sulfate, point 4 versus point 3 ([3]; fall in arginine ingestion, no drop in DHEA ingestion): fell
- glucose concentration ([3]; fasting serum, during introduction and tapering off of arginine): no change
- fasting serum insulin rise in response to arginine ingestion ([3]; point 2, day 7, 15 g/day arginine at bedtime, no DHEA): ~50%
- DHEA-sulfate, endogenous change ([3]; point 2 versus point 1, arginine only, no DHEA ingested): noticeable increase
- time for insulin to fall back to baseline after arginine [4]: 1 to 2 h
- time to peak of insulin levels after arginine [4]: ≤ 30 min

Compound: Chromium picolinate
- extension of the life span of animals [5]: 50%

Compound: C[C@]12CC[C@H](O)CC1=CC[C@@H]1[C@@H]2CC[C@]2(C)C(=O)CC[C@@H]12 [DHEA, dehydroepiandrosterone]
- insulin level at point 4 ([3]; day 21, DHEA maintained, arginine every other day, none the night before): returned to basal levels
- fasting serum insulin, % of basal levels ([3]; point 3, day 14, 180 mg/day DHEA with continuing undiminished 15 g/day arginine): 76%
